In data set [1] the test system is delayed-type-hypersensitivity responses. Conditions: in vivo; cited from earlier work.
In another data set the target is T1, PKCα (Mus musculus, UniProt P20444).
T1 construct: endogenous in cells; host or cells: endothelial cells (mHEVa named)
Description: VCAM-1 activation of endothelial cell PKCα (PKCα-Thr638 phosphorylation, western blot). It is filed as cell-based. Conditions: overnight 80 μM α-tocopherol / 2 μM γ-tocopherol; anti-VCAM-1 stimulation 10 minutes. The protocol:
Endothelial cells were pretreated overnight with physiological concentrations of tocopherols (80 μM α-tocopherol and/or 2 μM γ-tocopherol). Endothelial cell VCAM-1 was stimulated with anti-VCAM-1 and a secondary antibody for 10 minutes. Phosphorylation of PKCα-Thr^638 was examined by western blot, developed using an ECL kit, and analyzed by densitometry as in the methods section. These concentrations of α-tocopherol (80 μM) and γ-tocopherol (2 μM) were optimal for their inhibition or enhancement, respectively, of VCAM-1 activation of PKCα (data not shown). Shown are representative blots and data from 5 experiments. *, p<0.05 compared to nonstimulated groups. **, p<0.05 compared to nonstimulated groups and p<0.07 compared to DMSO-treated/anti-VCAM-stimulated group.

Data set [2] is described as follows: Body and lung weights on day 21. It is filed as in vivo, mouse. Particulars: mice, day 21, daily s.c. tocopherol days 13-20. The protocol: (§1) Tissue collection. After airway function analysis, mice were weighed, sacrificed and the lungs flushed twice with 0.8 ml PBS. The cells in this bronchoalveolar lavage (BAL) were cytospun onto slides, DiffQuik (Baxter) stained, and differential cell counts were performed. BAL supernatants were snap frozen and stored at −80° C. for cytokine analysis. Lungs were perfused free of blood and one quarter of the lung was tied off, collected, weighed, snap frozen, and stored at −80° C. for tocopherol analysis and PGE2 analysis. One quarter of the lung was collected and placed in RNA later for analysis of mRNA for eotaxin expression. The other half of the lung was injected with 40% freezing compound, collected and stored at −80° C. for tissue sections and histological staining Frozen sections were prepared rather than paraffin sections since the anti-mouse VCAM-1 antibodies only bind to VCAM-1 in frozen sections.
Body weight and tocopherol levels in these mice were examined. […] Consistent with this, the body weight and lung weights of the mice studied during the development of embodiments of the present invention were unaltered by the α-tocopherol or γ-tocopherol treatments (SEE FIG. 3). Lungs were perfused to remove the blood, homogenized in ethanol and extracted with hexane. Tocopherol concentrations were determined by HPLC with an electrochemical detector. The lung tissue and plasma levels of tocopherols were elevated (SEE FIG. 4). […] The level of γ-tocopherol in the lung tissue of γ-tocopherol-treated mice was 10 fold lower than lung tissue α-tocopherol in the α-tocopherol-treated mice. This 10 fold difference in α-tocopherol and γ-tocopherol levels in the lung tissues may be caused preferential transfer of α-tocopherol in the liver by a TTP (20, 24), although the present invention is not limited to any particular mechanism of action and an understanding of the mechanism of action is not necessary to practice the present invention. […] Administration of tocopherols also had no effect on the low levels of δ-tocopherol in the lung (SEE FIG. 4A).

Data set [3] has as its system OVA-challenged mice (experimental asthma). Description: OVA experimental asthma: leukocyte infiltration into bronchoalveolar lavage (BAL). Conditions: OVA-challenged BALB/c mice, daily s.c. 2 μg tocopherol days 13-20, day 21, vs OVA-challenged vehicle. It is filed as in vivo, mouse. The protocol: Reagents. Ethoxylated castor oil was composed of polyethoxylated castor oil (PEG35), 20% ethanol, and 1% benzyl alcohol. […] The purified tocopherols were diluted in ethoxylated castor oil to indicated concentrations for the in vivo studies. The purified tocopherols were diluted in DMSO (0.2%) for the in vitro studies. OVA administration. BALB/c female mice were maintained on chow diet. The mice were sensitized by intraperitoneal injection (200 μl) of OVA grade V (10 μg)/alum or saline/alum on days 0 and 7 (SEE FIG. 1). On days 13-20, these mice received daily subcutaneous injections (50 μl) of 2 μg natural tocopherol/ethoxylated castor oil or ethoxylated castor oil alone. This daily 2 μg of natural tocopherol is equivalent to the amount of tocopherol that mice consume from diets (4 g diet consumed/day×500 mg α-tocopherol/kg diet) that are commonly used to elevate tissue tocopherols in mice. The mice recieved 2 μg d-α-tocopherol, 2 μg d-γ-tocopherol, 2 μg d-α-tocopherol plus 2 μg d-γ-tocopherol or the vehicle exthoxylated castor oil. […] During the OVA responses in mice, tocopherol radicals are recycled by endogenously synthesized ascorbic acid. On days 16, 18, and 20, the mice were challenged with intranasal OVA fraction VI (150 μg) in saline or saline alone. On day 21, the mice were analyzed for airway responsiveness followed by collection of tissues.
as §1
Mice were sensitized with intraperitoneal injection of OVA grade V (10 μg)/alum or saline/alum on days 0 and 7 (SEE FIG. 2). On days 13-20, these mice received daily subcutaneous injections (500) of 2 μg natural tocopherol/ethoxylated castor oil (33) or ethoxylated castor oil alone. This daily 2 μg of natural tocopherol is equivalent to the amount of tocopherol that mice consume from diets (4 g diet consumed/day×500 mg a tocopherol/kg diet) that are commonly used to elevate tissue tocopherols in mice. On days 16, 18, and 20 the mice were challenged with intranasal OVA fraction VI (150 μg) in saline or saline alone. On day 21, the mice were analyzed for airway responsiveness and then tissues were collected. Lung responsiveness was determined using methacholine and whole-body plethysmography as previously described. This method of measuring lung function has the advantage of analysis of larger numbers of animals, as compared to the few animals that can be analyzed using invasive measures of lung function. The whole-body plethysmography correlates well with airway function when performed under continuous flow conditions. This measurement under continuous flow is critical as it avoids the complication of airway conditioning that occurs if these measurements are incorrectly made under closed conditions. After airway analysis, mice were sacrificed and tissues collected.

Take `Cc1c(C)c2c(c(C)c1O)CC[C@@](C)(CCC[C@H](C)CCC[C@H](C)CCCC(C)C)O2` [α-tocopherol, d-α-tocopherol, reference compound]: the Delayed-type-hypersensitivity responses result in data set [1] is given as “reduces”. The “VCAM-1 activation of PKCα (phosphorylation of PKCα-Thr638)” value on PKCα is “inhibition”. Also, in data set [2], the Body weight result was “unaltered” and the Lung weights result is on record as “unaltered”. For the same compound, in data set [3], the “OVA-stimulated infiltration of eosinophils into the BAL” value is given as “significantly reduced”, the “OVA-stimulated infiltration of lymphocytes into the BAL” value was “significantly reduced” and the “OVA-stimulated infiltration of monocytes into the BAL” value is reported as “significantly reduced”.

(Values after patent publication US20100076072A1, “COMPOSITIONS AND METHODS OF VITAMIN E ADMINISTRATION” (NORTHWESTERN UNIVERSITY, priority 2008, published 2010).)
